According to patent US20240270762A1, “PENICILLIN-BINDING PROTEIN INHIBITORS” (priority 2021, published 2024):
Values after ≈ are worked out from the molar mass of the structure shown.

Assays:
[1] = system: P. aeruginosa CDC-0110; assay: microbe, parasite or virus in culture; format: cell-based; conditions: Pseudomonas aeruginosa, CDC0110, read-out: Minimum inhibitory concentration, P. aeruginosa CDC-0110
[2] = target: A. baumannii PBP2 (Acinetobacter baumannii, UniProt D0C8Z9); assay: Bocillin-FL competition binding via gel filtration, A. baumannii PBP2
Sequence of A. baumannii PBP2 (D0C8Z9 whole entry): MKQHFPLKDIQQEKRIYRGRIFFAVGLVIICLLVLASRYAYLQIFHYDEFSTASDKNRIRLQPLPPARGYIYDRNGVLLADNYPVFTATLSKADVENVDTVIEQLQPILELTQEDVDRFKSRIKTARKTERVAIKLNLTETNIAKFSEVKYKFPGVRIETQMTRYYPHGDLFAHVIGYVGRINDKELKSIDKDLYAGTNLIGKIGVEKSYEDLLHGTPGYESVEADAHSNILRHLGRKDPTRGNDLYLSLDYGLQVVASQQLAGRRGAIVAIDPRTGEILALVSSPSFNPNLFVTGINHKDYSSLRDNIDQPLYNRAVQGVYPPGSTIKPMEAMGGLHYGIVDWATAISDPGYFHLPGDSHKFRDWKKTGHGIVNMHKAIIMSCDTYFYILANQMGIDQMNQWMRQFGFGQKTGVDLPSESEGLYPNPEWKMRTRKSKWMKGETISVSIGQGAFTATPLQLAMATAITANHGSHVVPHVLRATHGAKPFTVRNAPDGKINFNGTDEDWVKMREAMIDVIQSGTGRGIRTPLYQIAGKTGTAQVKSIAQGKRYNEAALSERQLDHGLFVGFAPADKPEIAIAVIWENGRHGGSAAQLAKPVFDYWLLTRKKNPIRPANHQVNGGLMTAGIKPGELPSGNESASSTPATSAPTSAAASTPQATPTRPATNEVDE
In short: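 Competitive equilibrium binding; reporter Bocillin-FL. PBP + inhibitor (titration) pre-incubated → Bocillin-FL, 15 min → gel filtration → fluorescence. EC50 from Hill fit of fraction bound vs [inhibitor].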

[3] = system: A. baumannii CDC-0045; assay: microbe, parasite or virus in culture; format: cell-based; conditions: Acinetobacter baumannii, CDC0045, read-out: MIC, A. baumannii CDC-0045
[4] = system: A. baumannii ATCC 19606; assay: microbe, parasite or virus in culture; format: cell-based; conditions: Acinetobacter baumannii, ATCC19606, read-out: MIC, A. baumannii ATCC 19606
[5] = system: P. aeruginosa (ΔmexAB-oprM); assay: Broth microdilution MIC in iron-depleted CAMHB (IDM); format: cell-based; conditions: Pseudomonas aeruginosa; iron-depleted CAMHB (IDM); […]; read-out: Minimum inhibitory concentration, P. aeruginosa ΔmexAB-oprM
[6] = target: T1, PBP3 from Pseudomonas aeruginosa (PAO1) (Pseudomonas aeruginosa, UniProt G3XD46); assay: Bocillin-FL fluorescence polarization competition binding, P. aeruginosa PBP3; conditions: Binding affinity to P. aeruginosa PBP3; fluorescence polarization competition binding assay using Bocillin-FL; read-out: P. aeruginosa PBP3 Potency
T1 construct: made in house
T1 sequence (G3XD46 whole entry): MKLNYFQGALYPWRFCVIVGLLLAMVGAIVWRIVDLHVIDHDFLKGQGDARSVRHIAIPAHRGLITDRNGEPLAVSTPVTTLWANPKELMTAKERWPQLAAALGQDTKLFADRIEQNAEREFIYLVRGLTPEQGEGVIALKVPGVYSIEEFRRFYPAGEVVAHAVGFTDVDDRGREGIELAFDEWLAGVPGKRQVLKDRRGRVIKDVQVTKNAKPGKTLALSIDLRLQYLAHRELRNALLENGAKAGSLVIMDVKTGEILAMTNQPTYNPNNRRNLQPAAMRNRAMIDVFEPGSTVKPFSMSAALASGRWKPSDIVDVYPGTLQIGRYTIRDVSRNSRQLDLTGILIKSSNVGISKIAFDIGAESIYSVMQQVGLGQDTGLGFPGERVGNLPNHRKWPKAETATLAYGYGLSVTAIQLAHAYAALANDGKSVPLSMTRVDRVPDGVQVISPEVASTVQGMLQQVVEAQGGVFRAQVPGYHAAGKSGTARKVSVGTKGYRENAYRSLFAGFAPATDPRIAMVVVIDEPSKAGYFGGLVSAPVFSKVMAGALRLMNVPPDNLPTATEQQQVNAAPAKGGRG
In short: (§1)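 Purified PBP was preincubated with inhibitor (E. coli PBP3 1.5 μM, 30 min; P. aeruginosa PBP3 0.75 μM, A. baumannii PBP3 0.2 μM and PBP1a 1 μM, 15 min), then Bocillin-FL (0.1 μM; 0.05 μM for PBP1a) added and FP read up to 60 min. EC50 = 50% loss of bound probe.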

[7] = target: T2, PBP3 from Acinetobacter baumannii (ATCC 19606) (Acinetobacter baumannii, UniProt A0ABX6CK25); assay: Bocillin-FL fluorescence polarization competition binding, A. baumannii PBP3; conditions: fluorescence polarization competition binding assay using Bocillin-FL; read-out: A. baumannii PBP3 Potency
T2 sequence (A0ABX6CK25 64-610): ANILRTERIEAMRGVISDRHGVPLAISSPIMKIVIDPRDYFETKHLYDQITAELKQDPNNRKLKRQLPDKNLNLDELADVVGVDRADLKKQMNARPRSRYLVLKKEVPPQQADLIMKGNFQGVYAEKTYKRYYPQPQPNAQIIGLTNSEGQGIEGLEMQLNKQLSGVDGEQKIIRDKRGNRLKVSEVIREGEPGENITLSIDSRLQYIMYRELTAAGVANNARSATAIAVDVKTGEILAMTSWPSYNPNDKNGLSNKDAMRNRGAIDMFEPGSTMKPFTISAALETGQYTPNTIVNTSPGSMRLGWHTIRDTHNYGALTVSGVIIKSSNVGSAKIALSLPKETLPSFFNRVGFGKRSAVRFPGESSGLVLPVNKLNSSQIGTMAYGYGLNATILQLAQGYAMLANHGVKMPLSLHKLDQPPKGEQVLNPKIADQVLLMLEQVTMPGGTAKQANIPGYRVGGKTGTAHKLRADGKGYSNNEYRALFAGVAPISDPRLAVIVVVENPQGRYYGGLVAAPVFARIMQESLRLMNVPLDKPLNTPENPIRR
In short: as §1

[8] = system: A. baumannii CDC-0036; assay: microbe, parasite or virus in culture; format: cell-based; conditions: Acinetobacter baumannii, CDC0036, read-out: MIC, A. baumannii CDC-0036

Row | SMILES | MIC [1] [µg/mL] | EC50 [2] [µM] | MIC [3] [µg/mL] | MIC [4] [µg/mL] | MIC [5] [µg/mL] | IC50 [6] [µM] | IC50 [7] [µM] | MIC [8] [µg/mL]
1 | O=C(O)c1cccc2c1OB(O)[C@@H](NC(=O)C(NC(=O)N1CCN(Cc3cc(F)c(O)c(O)c3Cl)C(=O)C1=O)c1ccc(P(=O)(O)O)cc1)C2 (stereo partly drawn) [Example 164, (3R)-3-(2-(4-(2-chloro-5-fluoro-3,4-dihydroxybenzyl)-2,3-dioxopiperazine-1-carboxamido)-2-(4-phosphonophenyl)acetamido)-2-hydroxy-3,4-dihydro-2H-benzo[e][1,2]oxaborinine-8-carboxylic acid] | < 1 | < 10 | < 1 | < 1 | < 1 | < 10 | < 10 | < 1
2 | O=C(O)c1c(F)ccc2c1OB(O)[C@@H](NC(=O)[C@H](NC(=O)N1CCN(C3CCN(C(=O)c4cc(O)ccc4Cl)CC3)C1=O)c1cc(F)c(O)c(O)c1Cl)C2 (single isomer, unassigned) [Example 434] | < 1 | < 10 | < 1 | < 1 | < 1 | < 10 | < 10 | < 1
3 | O=C(O)c1c(F)ccc2c1OB(O)[C@@H](NC(=O)[C@H](NC(=O)N1CCN(C3CCN(C(=O)c4cccc(O)c4)CC3)C1=O)c1cc(F)c(O)c(O)c1Cl)C2 (single isomer, unassigned) [Example 430] | < 1 | < 10 | 8 to 16 (≈ 10.6 to 21.1 µM) | < 1 | < 1 | < 10 | < 10 | 8 to 16 (≈ 10.6 to 21.1 µM)
4 | O=C(O)c1c(F)ccc2c1OB(O)[C@@H](NC(=O)[C@H](NC(=O)N1CCN(C3CCN(C(=O)c4cccc(O)c4Cl)CC3)C1=O)c1cc(F)c(O)c(O)c1Cl)C2 (single isomer, unassigned) [Example 432] | < 1 | < 10 | < 1 | < 1 | < 1 | < 10 | < 10 | 2 to 4 (≈ 2.52 to 5.05 µM)
5 | O=C(O)c1c(F)ccc2c1OB(O)[C@@H](NC(=O)[C@H](NC(=O)N1CCN(C3CCN(C(=O)Nc4cc(O)cc(O)c4)CC3)C1=O)c1cc(F)c(O)c(O)c1Cl)C2 [Example 456, (R)-3-((R)-2-(2-chloro-5-fluoro-3,4-dihydroxyphenyl)-2-(3-(1-((3,5-dihydroxyphenyl)carbamoyl)piperidin-4-yl)-2-oxoimidazolidine-1-carboxamido)acetamido)-7-fluoro-2-hydroxy-3,4-dihydro-2H-benzo[e][1,2]oxaborinine-8-carboxylic acid] | < 1 | < 10 | < 1 | < 1 | < 1 | < 10 | < 10 | < 1
6 | O=C(O)c1c(F)ccc2c1OB(O)[C@@H](NC(=O)[C@H](NC(=O)N1CCN(C3CCN(C(=O)Nc4ccc(O)cc4)CC3)C(=O)C1=O)c1cc(F)c(O)c(O)c1Cl)C2 (single isomer, unassigned) [Example 426] | < 1 | 10 to 50 | 2 to 4 (≈ 2.5 to 4.99 µM) | < 1 | < 1 | < 10 | < 10 | 8 to 16 (≈ 9.99 to 20 µM)
7 | O=C(O)c1c(F)ccc2c1OB(O)[C@@H](NC(=O)C(NC(=O)N1CCN(C3CCN(C(=O)Nc4cc(O)cc(F)c4)CC3)C(=O)C1=O)c1cc(F)c(O)c(O)c1Cl)C2 (stereo partly drawn) [Example 481, (3R)-3-(2-(2-chloro-5-fluoro-3,4-dihydroxyphenyl)-2-(4-(1-((3-fluoro-5-hydroxyphenyl)carbamoyl)piperidin-4-yl)-2,3-dioxopiperazine-1-carboxamido)acetamido)-7-fluoro-2-hydroxy-3,4-dihydro-2H-benzo[e][1,2]oxaborinine-8-carboxylic acid] | < 1 | < 10 | < 1 | < 1 | < 1 | < 10 | < 10 | < 1
8 | O=C(O)c1c(F)ccc2c1OB(O)[C@@H](NC(=O)[C@H](NC(=O)N1CCN(C3CCN(C(=O)c4cc(F)c(F)c(O)c4F)CC3)C1=O)c1cc(F)c(O)c(O)c1Cl)C2 (single isomer, unassigned) [Example 441] | < 1 | < 10 | < 1 | < 1 | < 1 | < 10 | < 10 | < 1
9 | O=C(O)c1c(F)ccc2c1OB(O)[C@@H](NC(=O)[C@H](NC(=O)N1CCN(C3CCN(C(=O)c4cc(O)c(F)c(O)c4)CC3)C1=O)c1cc(F)c(O)c(O)c1Cl)C2 (single isomer, unassigned) [Example 443] | < 1 | < 10 | < 1 | < 1 | < 1 | < 10 | < 10 | < 1
10 | O=C(O)c1c(F)ccc2c1OB(O)[C@@H](NC(=O)[C@H](NC(=O)N1CCN(C3CCN(C(=O)c4ccncc4)CC3)C1=O)c1cc(F)c(O)c(O)c1Cl)C2 [Example 461, (R)-3-((R)-2-(2-chloro-5-fluoro-3,4-dihydroxyphenyl)-2-(3-(1-isonicotinoylpiperidin-4-yl)-2-oxoimidazolidine-1-carboxamido)acetamido)-7-fluoro-2-hydroxy-3,4-dihydro-2H-benzo[e][1,2]oxaborinine-8-carboxylic acid] | < 1 | 10 to 50 | < 1 | < 1 | < 1 | < 10 | < 10 | < 1
11 | O=C(O)c1c(F)ccc2c1OB(O)[C@@H](NC(=O)[C@H](NC(=O)N1CCN(C3CCN(C(=O)c4cccnc4)CC3)C1=O)c1cc(F)c(O)c(O)c1Cl)C2 [Example 460, (R)-3-((R)-2-(2-chloro-5-fluoro-3,4-dihydroxyphenyl)-2-(3-(1-nicotinoylpiperidin-4-yl)-2-oxoimidazolidine-1-carboxamido)acetamido)-7-fluoro-2-hydroxy-3,4-dihydro-2H-benzo[e][1,2]oxaborinine-8-carboxylic acid] | < 1 | 10 to 50 | < 1 | < 1 | < 1 | < 10 | < 10 | < 1
12 | O=C(O)c1c(F)ccc2c1OB(O)[C@@H](NC(=O)C(NC(=O)N1CCN(C3CCN(C(=O)Nc4cc(O)cc(Cl)c4)CC3)C(=O)C1=O)c1cc(F)c(O)c(O)c1Cl)C2 (stereo partly drawn) [Example 484, (3R)-3-(2-(2-chloro-5-fluoro-3,4-dihydroxyphenyl)-2-(4-(1-((3-chloro-5-hydroxyphenyl)carbamoyl)piperidin-4-yl)-2,3-dioxopiperazine-1-carboxamido)acetamido)-7-fluoro-2-hydroxy-3,4-dihydro-2H-benzo[e][1,2]oxaborinine-8-carboxylic acid] | 2 to 4 (≈ 2.39 to 4.79 µM) | < 10 | < 1 | < 1 | < 1 | < 10 | < 10 | 2 to 4 (≈ 2.39 to 4.79 µM)
